Experimental data as given in PMC5107130 (Pharmacological Research, 2016).
Where “and” joins values, the source holds several entries; their conditions need not be identical. Equal values may be shown once. Read-outs that look alike come from different tables or passages of the source. Values belong to the molecule of their own block, whether it stands above or below them.

Tests used:
[1] = biological target: T1, Recombinant full length human CBS (Homo sapiens, UniProt P35520); experiment: AzMC fluorescence assay of CBS-derived H2S production; type: biochemical; settings: for Confirmation (% inhibition of CBS-induced AzMC fluorescence) / % inhibition of CBS-induced AzMC fluorescence: mean ± SEM, n = 3; for IC50: read-out: IC50, inhibition of recombinant CBS (CBS-induced AzMC fluorescence), cell-free, 2 mM L-cysteine and homocysteine; for % inhibition of CBS-induced AzMC fluorescence: copper compounds
T1 sequence (P35520 1-551): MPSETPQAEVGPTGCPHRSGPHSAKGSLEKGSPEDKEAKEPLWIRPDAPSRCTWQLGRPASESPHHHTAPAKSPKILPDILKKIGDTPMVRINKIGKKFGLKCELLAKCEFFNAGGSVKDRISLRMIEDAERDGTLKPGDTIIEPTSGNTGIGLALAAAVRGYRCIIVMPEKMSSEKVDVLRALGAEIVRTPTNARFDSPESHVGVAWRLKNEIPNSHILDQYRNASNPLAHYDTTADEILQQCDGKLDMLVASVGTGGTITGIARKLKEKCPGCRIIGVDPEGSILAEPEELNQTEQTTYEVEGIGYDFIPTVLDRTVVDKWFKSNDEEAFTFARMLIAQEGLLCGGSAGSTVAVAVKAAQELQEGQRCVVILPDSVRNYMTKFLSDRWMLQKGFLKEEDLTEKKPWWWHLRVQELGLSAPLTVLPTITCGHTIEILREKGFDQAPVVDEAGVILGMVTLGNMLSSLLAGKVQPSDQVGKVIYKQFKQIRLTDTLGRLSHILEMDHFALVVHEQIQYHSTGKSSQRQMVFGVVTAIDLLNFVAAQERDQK

[2] = Counterscreen: AzMC fluorescence signal generated by the H2S donor GYY4137; settings: mean ± SEM, n = 3; for % inhibition of GYY4137-induced AzMC fluorescence: copper compounds
[3] = read-out: Confirmation (% inhibition of CBS-induced AzMC fluorescence), 30 μM, mean ± SEM, n = 3
[4] = read-out: Initial screen (% inhibition of CBS-induced AzMC fluorescence), 30 μM
[5] = read-out: % inhibition of recombinant CBS activity
[6] = read-out: Confirmation (% inhibition of CBS-induced AzMC fluorescence)
[7] = read-out: Initial screen (% inhibition of CBS-induced AzMC fluorescence)

Structure (SMILES): NNCc1cccc(O)c1 [3-hydroxybenzylhydrazine]
inhibition at 10 µM [1, 5]: 24% | inhibition at 30 µM [1, 5]: 37% | inhibition at 100 µM [1, 5]: 68%

Structure (SMILES): NC(N)=NC(=O)c1nc(Cl)c(N2CCCCCC2)nc1N [5-(N,N-hexamethylene)amiloride]
Initial screen (% inhibition of CBS-induced AzMC fluorescence) ([1]; 30 μM): 72% | Confirmation (% inhibition of CBS-induced AzMC fluorescence) ([1]; 30 μM): 58 ± 3% | Confirmation (% inhibition of GYY4137-induced AzMC fluorescence) ([2]; 30 μM): 54 ± 4%

Structure (SMILES): Cc1cc(C(C#N)c2ccc(Cl)cc2)c(Cl)cc1NC(=O)c1cc(I)cc(I)c1O (stereo not drawn) [Closantel]
inhibition at 30 µM [1, 6]: 25 ± 5% | inhibition at 30 µM [1, 7]: 43% | Confirmation (% inhibition of GYY4137-induced AzMC fluorescence) ([2]; 30 μM): 31 ± 2%

Structure (SMILES): O=[N+]([O-])[O-].O=[N+]([O-])[O-].[Cu+2] [Cu(NO2)2, copper(II) nitrate]
IC50 [1]: ~200 nM

Structure (SMILES): CC(=O)[O-].CC(=O)[O-].[Cu+2] [CuAc, copper(II) acetate]
% inhibition of CBS-induced AzMC fluorescence ([1]; 0.1 μM): 39 ± 1% | % inhibition of CBS-induced AzMC fluorescence ([1]; 0.3 μM): 66 ± 1% | % inhibition of CBS-induced AzMC fluorescence ([1]; 1 μM): 92 ± 1% | IC50 [1]: ~200 nM | % inhibition of GYY4137-induced AzMC fluorescence ([2]; 0.1 μM): 2 ± 2% | % inhibition of GYY4137-induced AzMC fluorescence ([2]; 0.3 μM): 12 ± 1% | % inhibition of GYY4137-induced AzMC fluorescence ([2]; 1 μM): 17 ± 1%

Structure (SMILES): COc1cc2cc3c4c(cc(OC)c(OC)c4c2cc1OC)CCN3C [Dehydroglaucine]
Initial screen (% inhibition of CBS-induced AzMC fluorescence) ([1]; 17 μM): 62% (17 μM) | Confirmation (% inhibition of CBS-induced AzMC fluorescence) ([1]; 17 μM): 82 ± 4 (17 μM) % | Confirmation (% inhibition of GYY4137-induced AzMC fluorescence) ([2]; 17 μM): 57 ± 8 (17 μM) %

Structure (SMILES): CC1=C(C2=C(C)C(=O)c3c(c(C=O)c(O)c(O)c3C(C)C)C2=O)C(=O)c2c(C=O)c(O)c(O)c(C(C)C)c2C1=O [Gossypolone]
inhibition at 12 µM [1, 6]: 30 ± 5% | inhibition at 12 µM [1, 7]: 57% | Confirmation (% inhibition of GYY4137-induced AzMC fluorescence) ([2]; 12 μM): 25 ± 4 (12 μM) %

Structure (SMILES): O=C1C=CC(=O)c2c(O)cccc21 [Juglone]
Confirmation (% inhibition of GYY4137-induced AzMC fluorescence) ([2]; 30 μM): 61 ± 3%

Structure (SMILES): CC(=O)[O][Hg][c]1ccccc1 [Phenylmercuric acetate]
Initial screen (% inhibition of CBS-induced AzMC fluorescence) ([1]; 30 μM): 69% and 52% | Confirmation (% inhibition of CBS-induced AzMC fluorescence) ([1]; 30 μM): 50 ± 6% and 29 ± 4% | Confirmation (% inhibition of GYY4137-induced AzMC fluorescence) ([2]; 30 μM): 59 ± 2% and 32 ± 4%

The next lines start with results.

inhibition at 30 µM [1, 3]: 53 ± 1% | inhibition at 30 µM [1, 4]: 49%
Structure (SMILES): COC1=C(OC)C(=O)c2ccccc2C1=O [2,3-Dimethoxy-1,4-naphthoquinone]
Confirmation (% inhibition of GYY4137-induced AzMC fluorescence) ([2]; 30 μM): 51 ± 4%

inhibition at 100 µM ([1]; read-out: % inhibition of recombinant CBS activity, 100 μM, standard assay conditions, freshly dissolved): 6%
Structure (SMILES): C[C@@](Cc1ccc(O)c(O)c1)(NN)C(=O)O [Carbidopa]

inhibition at 30 µM [1, 3]: 30 ± 7% | inhibition at 30 µM [1, 4]: 47%
Structure (SMILES): CC(C)/N=c1\cc2n(-c3ccc(Cl)cc3)c3ccccc3nc-2cc1Nc1ccc(Cl)cc1 [Clofazimine]
Confirmation (% inhibition of GYY4137-induced AzMC fluorescence) ([2]; 30 μM): 28 ± 5%

Initial screen (% inhibition of CBS-induced AzMC fluorescence) ([1]; 30 μM): 69% | Confirmation (% inhibition of CBS-induced AzMC fluorescence) ([1]; 30 μM): 58 ± 4%
Structure (SMILES): O=S(=O)([O-])c1cc(N=C=S)ccc1C=Cc1ccc(N=C=S)cc1S(=O)(=O)[O-].[Na+].[Na+] [DIDS, 4,4′-diisothiocyanostilbene-2,2′-sufonic acid sodium salt]
Confirmation (% inhibition of GYY4137-induced AzMC fluorescence) ([2]; 30 μM): 56 ± 5%

inhibition at 30 µM [1, 3]: 48 ± 5% | inhibition at 30 µM [1, 4]: 58%
Structure (SMILES): O=Nc1ccc(O)c2ncccc12 [NSC 3852, 5-Nitroso-8-quinolinol]
Confirmation (% inhibition of GYY4137-induced AzMC fluorescence) ([2]; 30 μM): 47 ± 5%

Initial screen (% inhibition of CBS-induced AzMC fluorescence) ([1]; 30 μM): 70% | Confirmation (% inhibition of CBS-induced AzMC fluorescence) ([1]; 30 μM): 59 ± 8% | inhibition at 30 µM [1, 3]: 58 ± 8% | inhibition at 30 µM [1, 4]: 68%
Structure (SMILES): O=C1C(SCCO)=C(SCCO)C(=O)c2ccccc21 [NSC 95397, 2,3bis[(2-Hydroxyethyl)thio]-1,4-naphthoquinone]
Confirmation (% inhibition of GYY4137-induced AzMC fluorescence) ([2]; 30 μM): 58 ± 1%

inhibition at 30 µM [1, 3]: 55 ± 4% | inhibition at 30 µM [1, 4]: 48%
Structure (SMILES): O=C(N/N=C/c1ccc([N+](=O)[O-])o1)c1ccc(O)cc1 [Nifuroxazide]
Confirmation (% inhibition of GYY4137-induced AzMC fluorescence) ([2]; 30 μM): 50 ± 2%

inhibition at 30 µM [1, 3]: 54 ± 2% | inhibition at 30 µM [1, 4]: 52%
Structure (SMILES): NC(=O)N/N=C/c1ccc([N+](=O)[O-])o1 [Nitrofurazone]
Confirmation (% inhibition of GYY4137-induced AzMC fluorescence) ([2]; 30 μM): 48 ± 5%
